Values joined by “and” are separate entries in the source; they are usually repeats but may differ in a detail not shown here. Identical values can stand only once.
Assays:
[1] = Rapid solvent extraction screen of coated specimens (water, 50% MeOH, 100% MeOH); format: physicochemical
Protocol: (§1) Two experimental protocols were used to evaluate aqueous release and the extent of active retention. The first protocol was a rapid solvent extraction screen that involved dipping the coated specimens sequentially into vials containing 35 ml water for 1, 1, 5, and 10 minutes, then 50% MeOH for 10 minutes, and 100% MeOH for 24 hours. This protocol provided a rapid comparison of water soluble and entrained, but releasable, active fractions. The second protocol was to assess release rates based on simulated precipitation/rainfall conditions. This protocol involved maintaining test samples in successive 35 ml volumes of water for 24-hour periods for up to […], providing a cumulative daily release rate from dried films. This water extraction period was followed by a single extraction in 100% MeOH for 24 and 48 hrs to determine residual/entrained or solvent removable active. The aqueous leach procedure is considered extreme in simulating intermittent daily rainfalls of varying intensity, but does provide the rates of release for comparative purposes.
The influence of formulation factors on cyproconazole release and entrainment from aqueous solutions containing 0.2% EtOH without latex (FIG. 1A) was compared to the subsequent EtOH studies with latex. […] This would be expected to represent the relative solubility and release of active, and likely dependent on water solubility of the active.
To determine the influence of latex on cyproconazole release, cyproconazole was first dissolved in ethanol and added to 2% latex solutions to assess the effects on cyproconazole binding with latex using solvent extractions (FIG. 1A).
The first step was to determine the solvent extractability of the non-latex formulations. This was based on readily soluble (water, 17 minutes), easily soluble (50% MeOH, 10 minutes), and relatively non-water soluble (100% MeOH, 24 hr) fractions of the formulations (FIG. 3).
A total of nine commercial surfactants (Table 1) were compared for relative entrainment of cyproconazole in latex, based on the percent of active contained in the 100% MeOH fraction (FIG. 5).
The same solvent extraction protocol was used to evaluate 2 other fungicides (chlorothalonil and spiroxamine) with differing chemistries (water solubility and solvent solubility). These were evaluated using the same solvent extraction protocol. The three surfactants that worked best with cyproconazole were used for these actives.

[2] = EtOH printed for cyproconazole only; cited from earlier work
[3] = Simulated rainfall / sequential aqueous leaching of dried films; format: physicochemical; parameters: depletion of supplied active by aqueous extraction / release rate, % of supplied active: concentration or dose not given beside the values; conditions: for release rate of active: FIG. 10; for release rate, % of supplied active: FIG. 8; for recoverable active released to water: FIG. 9
Protocol: as §1
The solvent extraction method used above represents a rapid screen for the comparative entrainment behavior of actives and surfactants in the formulated latex system. To address the problem of foliar retention and longevity of actives using a single field application is more a function of rainfall frequency and intensity. To better understand this process under laboratory conditions, we employed a continuous/sequential aqueous (pH 6.0-6.8) leaching process, with periodic sampling and replacement of the solution over periods up to 288 hrs. This is a rather harsh leaching process, but is more representative than the water/MeOH solvent extraction procedure used for screening.
In the simulated rainfall study, we compared the aqueous extraction patterns for cyproconazole at 0.06% with 0.24% EtOH (1×) added to latex (with no surfactant), cyproconazole with […] and 0.05% PP912T added to latex, and cyproconazole with 1% EtOH (4×) and 0.05% PP912T added to latex. This combination was designed to determine formulation variables including surfactant and increased EtOH.
Aqueous extraction of formulations containing chlorothalonil and spiroxamine with latex without surfactant and with PP912T, AU-398 and AU-391A were compared to evaluate long term extraction profiles and residual active after 144 hrs of extraction, sampled at 24 hr intervals.

[4] = aqueous 0.2% EtOH, without latex, FIG. 1A

N#Cc1c(Cl)c(Cl)c(Cl)c(C#N)c1Cl [chlorothalonil]
100% MeOH retention compared to no surfactant ([1]; latex, with PP912T and AU-398, FIG. 6): increase
solvent solubility [2]: 10000 µg/mL
release rate of active ([3]; latex alone, at 6 days): 63%
release rate of active ([3]; latex with surfactants, 6 days): 80-88%
active remained after extraction ([3]; without surfactant, after 6 days of extraction, FIG. 11): 16%

CC(C1CC1)C(O)(Cn1cncn1)c1ccc(Cl)cc1 (centres unmarked) [cyproconazole]
50% MeOH fraction of active [1, 4]: 68%
100% MeOH fraction of active [1, 4]: 13.5% and 13%
water extractable fraction of active [1, 4]: 18.5%
100% MeOH fraction of active ([1]; dissolved in ethanol, added to 2% latex solution, FIG. 1A): 32%
release rate, % of supplied active ([3]; latex with AU-391A, at 6 days): 60%
release rate, % of supplied active ([3]; latex with AU-398, at 6 days): 50%
release rate, % of supplied active ([3]; latex with PP912T, at 6 days): 73%
depletion of supplied active by aqueous extraction ([3]; latex with surfactant PP912T, at 288 days, FIG. 7): 90%
time to attain 90% loss to water ([3]; latex/EtOH, FIG. 1B): 12 days
time at which aqueous loss of supplied active was 90% ([3]; without latex, FIG. 1B): 2.5 days

CCCN(CC)CC1COC2(CCC(C(C)(C)C)CC2)O1 (centres unmarked) [spiroxamine]
release to water compared to the no-surfactant control ([1]; latex, with PP912T, AU-398 and AU-391A, FIG. 6): increased release
recoverable active released to water ([3]; latex alone, 144 hr extraction): 85%
recoverable active released to water ([3]; latex plus AU-391A, 144 hr extraction): 85%
recoverable active released to water ([3]; latex plus AU-398, 144 hr extraction): 50%
recoverable active released to water ([3]; latex plus PP912T, 144 hr extraction): 50%
effect on release compared to latex alone ([3]; latex with AU-391A): no effect
release rate compared to latex alone ([3]; latex with PP912T and AU-398): substantial reduction
active released ([3]; with latex, without surfactant, 6 days extraction, FIG. 13): 94%
